Patent US20150139936A1, “DOSAGE AND ADMINISTRATION OF BISPECIFIC SCFV CONJUGATES IN COMBINATION WITH ANTI-CANCER THERAPEUTICS” (Merrimack Pharmaceuticals, Inc., priority 2012, published 2015)

Columns and labels:
[1] = oral; cited from earlier work
[2] = cited from earlier work
[3] = Pre-clinical combination efficacy of MM-111; conditions: with lapatinib, trastuzumab, paclitaxel or docetaxel

## CS(=O)(=O)CCNCc1ccc(-c2ccc3ncnc(Nc4ccc(OCc5cccc(F)c5)c(Cl)c4)c3c2)o1 [lapatinib]
[1]
  bioavailability with food consumption: increased

## CC(=O)O[C@@]12CO[C@@H]1C[C@H](O)[C@@]1(C)C(=O)[C@H](O)C3=C(C)[C@@H](OC(=O)[C@H](O)[C@@H](NC(=O)OC(C)(C)C)c4ccccc4)C[C@@](O)([C@@H](OC(=O)c4ccccc4)[C@H]21)C3(C)C [docetaxel, 1,7β,10β-trihydroxy-9-oxo-5β,20-epoxytax-11-ene-2α,4,13α-triyl 4-acetate 2-benzoate 13-{(2R,3S)-3-[(tert-butoxycarbonyl)amino]-2-hydroxy-3-phenylpropanoate}]
[2]
  water solubility: more water soluble than paclitaxel

## MM-111: bispecific anti-ErbB2/anti-ErbB3 antibody, scFv HSA conjugate, SEQ ID NO:1
[3]
  combination effect (efficacy): additive
